From patent US8541585B2, “N-acyl cyclic amine derivative or pharmaceutically acceptable salt thereof” (Dainippon Sumitomo Pharma Co., Ltd., priority 2010, dated 2013)

Experiments:
human 5-HT2A receptor = biological target: T1, human 5-HT2A receptor (Homo sapiens, UniProt P28223); assay: Serotonin 5-HT2A receptor binding assay ([3H]-ketanserin); conditions: [3H]-ketanserin 1 nM, human 5-HT2A receptor-expressing CHO cell membrane; for inhibition at 0.001 µM: read-out: BINDING INHIBITION RATE (%) 5HT2A 1 nM; for inhibition at 0.01 µM: 10 nM test drug, read-out: BINDING INHIBITION RATE (%) 5HT2A 10 nM
T1 construct: expressed in transfected cells; host or cells: CHO cells (membrane preparation)
T1 sequence (P28223 whole entry): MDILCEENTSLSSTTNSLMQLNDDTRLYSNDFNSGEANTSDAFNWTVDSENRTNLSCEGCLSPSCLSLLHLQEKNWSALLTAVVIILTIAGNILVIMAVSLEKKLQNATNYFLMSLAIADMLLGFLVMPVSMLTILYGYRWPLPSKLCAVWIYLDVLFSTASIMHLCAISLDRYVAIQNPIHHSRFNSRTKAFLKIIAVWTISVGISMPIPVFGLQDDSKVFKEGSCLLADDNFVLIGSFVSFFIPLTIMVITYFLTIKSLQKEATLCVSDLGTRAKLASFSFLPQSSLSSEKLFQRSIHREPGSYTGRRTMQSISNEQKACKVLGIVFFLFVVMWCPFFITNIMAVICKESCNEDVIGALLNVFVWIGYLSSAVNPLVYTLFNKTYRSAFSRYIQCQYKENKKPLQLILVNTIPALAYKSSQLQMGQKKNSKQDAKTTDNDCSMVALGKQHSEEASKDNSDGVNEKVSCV
In short: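 Membranes from CHO cells expressing human 5-HT2A incubated 15 min at 37 °C with 1 nM [3H]-ketanserin in 50 mM Tris-HCl pH 7.6, then filtered and counted by scintillation. Nonspecific binding defined with 10 μM MDL-100907; inhibition rate determined at 1 nM or 10 nM test drug.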

human D2L receptor = human D2L receptor (Homo sapiens, UniProt P14416); assay: Dopamine D2L receptor binding assay ([3H]-spiperone); conditions: 10 nM test drug, [3H]-spiperone 0.5 nM, human D2L receptor-expressing CHO cell membrane; for inhibition at 0.01 µM: read-out: BINDING INHIBITION RATE (%) D2L 10 nM
Sequence of human D2L receptor (P14416 whole entry): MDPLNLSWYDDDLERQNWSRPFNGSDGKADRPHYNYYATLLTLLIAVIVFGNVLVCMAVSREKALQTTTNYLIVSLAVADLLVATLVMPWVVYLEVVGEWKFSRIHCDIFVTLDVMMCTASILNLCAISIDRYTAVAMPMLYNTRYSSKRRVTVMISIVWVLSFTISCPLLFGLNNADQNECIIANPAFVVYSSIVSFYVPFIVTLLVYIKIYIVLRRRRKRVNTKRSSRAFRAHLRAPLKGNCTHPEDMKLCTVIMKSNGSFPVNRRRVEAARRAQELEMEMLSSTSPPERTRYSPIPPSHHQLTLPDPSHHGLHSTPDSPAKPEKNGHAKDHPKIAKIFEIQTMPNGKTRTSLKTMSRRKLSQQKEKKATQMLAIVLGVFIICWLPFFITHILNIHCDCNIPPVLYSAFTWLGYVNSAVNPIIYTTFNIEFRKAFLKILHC
In short: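 CHO membranes expressing human D2L incubated 60 min at RT with 0.5 nM [³H]-spiperone in 50 mM Tris-HCl pH 7.6; filtration and scintillation counting. Nonspecific binding with 10 μM spiperone; % binding inhibition at 10 nM test drug.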

human α1D receptor = biological target: T2, human α1D receptor (Homo sapiens, UniProt P25100); assay: Adrenaline α1D receptor binding assay ([3H]-prazosin); conditions: 100 nM test drug, [3H]-prazosin 0.6 nM, human α1D receptor-expressing CHO cell membrane; for inhibition at 0.1 µM: read-out: BINDING INHIBITION RATE (%) α1D 100 nM
T2 construct: expressed in transfected cells; host or cells: CHO cells (membrane preparation)
T2 sequence (P25100 1-572): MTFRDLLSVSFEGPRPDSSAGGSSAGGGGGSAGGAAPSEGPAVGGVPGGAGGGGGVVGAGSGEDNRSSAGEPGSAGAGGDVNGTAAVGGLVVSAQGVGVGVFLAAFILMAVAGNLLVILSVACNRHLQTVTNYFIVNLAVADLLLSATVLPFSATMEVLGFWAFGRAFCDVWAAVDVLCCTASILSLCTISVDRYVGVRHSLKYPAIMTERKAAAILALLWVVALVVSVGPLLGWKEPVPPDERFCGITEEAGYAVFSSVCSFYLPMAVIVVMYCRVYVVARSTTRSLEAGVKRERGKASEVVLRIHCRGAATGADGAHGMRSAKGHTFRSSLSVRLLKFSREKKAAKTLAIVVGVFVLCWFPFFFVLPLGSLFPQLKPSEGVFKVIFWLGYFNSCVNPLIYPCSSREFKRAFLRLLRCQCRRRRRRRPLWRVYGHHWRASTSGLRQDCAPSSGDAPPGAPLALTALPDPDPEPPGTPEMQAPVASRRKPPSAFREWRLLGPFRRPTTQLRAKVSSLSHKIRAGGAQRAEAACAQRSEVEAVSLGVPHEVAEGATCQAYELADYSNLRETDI
In short: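 Membranes from CHO cells expressing human α1D, incubated 30 min at room temperature with 0.6 nM [3H]-prazosin in 50 mM Tris-HCl pH 7.6, filtered and counted. Nonspecific binding defined with 1 μM prazosin. Test drug at 100 nM, reported as percent inhibition of binding.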

human 5-HT6 receptor = biological target: T3, human 5-HT6 receptor (Homo sapiens, UniProt P50406); assay: Serotonin 5-HT6 receptor binding assay ([3H]-clozapine); conditions: 100 nM test drug, [3H]-clozapine 2 nM, human 5-HT6 receptor-expressing CHO cell membrane; for inhibition at 0.1 µM: read-out: BINDING INHIBITION RATE (%) 5HT6 100 nM
T3 construct: expressed in transfected cells; host or cells: CHO cells (membrane preparation)
T3 sequence (P50406 whole entry): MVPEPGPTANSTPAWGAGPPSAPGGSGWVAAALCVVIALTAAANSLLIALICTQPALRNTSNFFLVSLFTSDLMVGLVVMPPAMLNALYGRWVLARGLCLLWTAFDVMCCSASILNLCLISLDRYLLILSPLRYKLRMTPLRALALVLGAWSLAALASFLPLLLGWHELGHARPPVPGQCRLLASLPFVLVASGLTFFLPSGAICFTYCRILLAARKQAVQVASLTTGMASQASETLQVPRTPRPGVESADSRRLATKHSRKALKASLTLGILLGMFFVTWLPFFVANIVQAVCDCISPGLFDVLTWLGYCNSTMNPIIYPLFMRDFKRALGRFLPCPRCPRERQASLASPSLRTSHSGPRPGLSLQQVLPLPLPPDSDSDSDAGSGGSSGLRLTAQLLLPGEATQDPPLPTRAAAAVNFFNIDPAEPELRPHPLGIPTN
In short: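 Membranes from CHO cells expressing human 5-HT6 were incubated with [3H]-clozapine (2 nM final) for 40 min at room temperature in 50 mM Tris-HCl pH 7.6, 4 mM CaCl2, 0.5 mM EDTA. Bound radioactivity was filtered and counted. Values are % binding inhibition at 100 nM test drug, with nonspecific binding defined by 10 μM SB-258585.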

Row | Compound | inhibition at 0.001 µM (human 5-HT2A receptor; 1 nM test drug) | inhibition at 0.01 µM (human D2L receptor) | inhibition at 0.1 µM (human α1D receptor) | inhibition at 0.1 µM (human 5-HT6 receptor) | BINDING INHIBITION RATE (%) 5HT2A 1 nM (human 5-HT2A receptor; 1 nM test drug) | BINDING INHIBITION RATE (%) D2L 10 nM (human D2L receptor) | BINDING INHIBITION RATE (%) α1D 100 nM (human α1D receptor) | BINDING INHIBITION RATE (%) 5HT6 100 nM (human 5-HT6 receptor) | inhibition at 0.01 µM (human 5-HT2A receptor)
1 | Cc1ccc2cc(C(=O)N3CCC[C@H]3CCN3CCN(c4n[nH]c5ccccc45)CC3)[nH]c2c1 [Example 2, (S)-(2-(2-(4-(1H-Indazol-3-yl)piperazin-1-yl)ethyl)pyrrolidin-1-yl)(6-methyl-1H-indol-2-yl)methanone] | 65% | 73% | 63% | 95% |  |  |  |  | 
2 | (S)-(2-(2-(4-(4-Fluorobenzoyl)piperidin-1-yl)ethyl)pyrrolidin-1-yl)(1-methyl-1H-indol-5-yl)methanone [Example 169] |  |  |  |  | 47% | 81% | 49% | 73% | 
3 | O=C(c1ccc(F)cc1)C1CCN(CC[C@@H]2CCCN2C(=O)c2cc3ccc(F)cc3[nH]2)CC1 [Example 159, (S)-(6-Fluoro-1H-indol-2-yl)(2-(2-(4-(4-fluorobenzoyl)piperidin-1-yl)ethyl)pyrrolidin-1-yl)-methanone] | 78% | 93% | 71% | 96% |  |  |  |  | 
4 | O=C(c1ccc(F)cc1)C1CCN(CC[C@@H]2CCCN2C(=O)c2[nH]c3cc(OC(F)(F)F)ccc3c2F)CC1 [Example 164, (S)-(3-Fluoro-6-(trifluoromethoxy)-1H-indol-2-yl)(2-(2-(4-(4-fluorobenzoyl)piperidin-1-yl)ethyl)pyrrolidin-1-yl)methanone] | 56% | 79% | 43% | 99% |  |  |  |  | 
5 | COc1ccc2cc(C(=O)N3CC[C@H]3CCN3CCC(c4c[nH]c5ccccc45)CC3)[nH]c2c1 [Example 32] |  | 36% | 68% | 97% |  |  |  |  | 95%
6 | CCNC(=O)O[C@@H]1C[C@@H](CCN2CCC(c3c[nH]c4ccccc34)CC2)N(C(=O)c2cc3cc(OC)ccc3[nH]2)C1 [Example 36] |  | 48% | 75% | 86% |  |  |  |  | 87%
7 | Cc1ccc2cc(C(=O)N3CCC[C@H]3CCN3CCN(c4nsc5cc(F)ccc45)CC3)[nH]c2c1 [Example 13] | 34% | 72% | 60% | 93% |  |  |  |  | 
8 | O=C(c1ccc(F)cc1)C1CCN(CC[C@@H]2CCCN2C(=O)c2[nH]c3cc(F)ccc3c2F)CC1 [Example 163, (S)-(3,6-Difluoro-1H-indol-2-yl)(2-(2-(4-(4-fluorobenzoyl)piperidin-1-yl)ethyl)pyrrolidin-1-yl)methanone] | 75% | 88% | 48% | 95% |  |  |  |  | 
9 | Cc1ccc2cc(C(=O)N3CCC[C@H]3CCN3CCC(c4noc5cc(F)ccc45)CC3)[nH]c2c1 [Example 6, (S)-(2-(2-(4-(6-Fluorobenzo[d]isoxazol-3-yl)piperidin-1-yl)ethyl)pyrrolidin-1-yl)(6-methyl-1H-indol-2-yl)methanone] | 61% | 91% | 71% | 94% |  |  |  |  | 
10 | Cc1ccc2cc(C(=O)N3CCCC[C@H]3CCN3CCN(c4n[nH]c5ccccc45)CC3)[nH]c2c1 [Example 23] | 34% | 62% | 34% | 75% |  |  |  |  | 
11 | Cc1ccc2[nH]c(C(=O)N3CCOC[C@H]3CCN3CCC(c4coc5ccccc45)CC3)cc2c1 [Example 27] |  | 87% | 97% | 85% |  |  |  |  | 93%
12 | N#Cc1ccc2[nH]c(C(=O)N3CCC[C@H]3CCN3CCC(C(=O)c4ccc(F)cc4)CC3)cc2c1 [Example 56] | 70% | 84% | 70% | 91% |  |  |  |  | 
